Patent publication US20240131028A1, “CHEMOVACCINATION AGAINST PLASMODIUM INFECTION WITH SELECTIVE PLASMEPSIN X INHIBITORS” (Merck Sharp & Dohme LLC, priority 2021, published 2024)

Each compound was assayed on ring stage parasites (Pf) (assay: Parasite lactate dehydrogenase (LDH) growth assay (Parasite Assay, PfLDH Assay)). Conditions: Plasmodium falciparum, 72 h, Table 3; 72 hours growth, LDH readout; read-out: EC50.
Assay type: cell-based, P. falciparum
Description: The parasite stock was maintained at 4% haematocrit in RPMI-Hepes media buffered with sodium bicarbonate and supplemented with 5% heat inactivated human serum and 0.5% albumax. […] On the day of assay set up, a blood smear of the parasite culture was Giemsa stained and counted. The parasitemia was adjusted to 0.7% rings and the haematocrit was diluted to 2% in RPMI-Hepes media buffered with sodium bicarbonate and supplemented with 5% heat inactivated human serum and 0.5% albumax. 30 μl of diluted parasites are then added into 10 μl of media+compound in pre-prepared Greiner TC assay plates. Parasite assay plates were placed in gassed humidified boxes in single layer and allowed to incubate at 37° C. for 72 hours. After 72 hours growth, assay plates were sealed with parafilm and frozen flat, in single file at −80° C. overnight. On the following day, assay plates were allowed to thaw at room temperature for 4 hours to which an LDH assay was performed to measure parasite growth.

| Compound | EC50 [nM] |
| --- | --- |
| CC1(C)CC(=O)N([C@H](c2ccc(C#N)cc2)[C@H]2C[C@@H]2C(=O)N[C@@H]2c3ccccc3OC(C)(C)[C@H]2O)C(=N)N1 [Example 46] | 2.5 |
| COCC[C@H]([C@H]1C[C@@H]1C(=O)N[C@H]1CC(C)(C)Oc2cc(Cl)ccc21)N1C(=N)NC(C)(C)CC1=O [Example 89A] | 5.6 |
| CCC1(CC)CC(=O)N(C[C@H]2C[C@@H]2C(=O)N[C@H]2C[C@@H](C(F)(F)F)Oc3ccccc32)C(=N)N1 [Example 8A] | 37 |
| CC1(C)CC(=O)N([C@@H](c2ccc(C#N)cc2)[C@H]2C[C@@H]2C(=O)N[C@H]2CC(C)(C)Oc3ccccc32)C(=N)N1 [Example 45B] | 220 |
| Cc1ccc2c(c1)OC(C)(C)C[C@@H]2NC(=O)[C@H]1C[C@@H]1CN1C(=N)NC(C)(C)CC1=O [Example 84] | 289 |
| COc1cncc([C@H]([C@H]2C[C@@H]2C(=O)N[C@H]2C[C@H](C(F)(F)F)Oc3ccccc32)N2C(=N)NC(C)(C)CC2=O)c1 [Example 41] | 1.1 |
| CC[C@]1(C)CC(=O)N([C@H](CCOC)[C@H]2C[C@@H]2C(=O)N[C@H]2CC(C)(C)Oc3ccc(C)cc32)C(=N)N1 [Example 123] | 2 |

Same assay, conditions: Plasmodium falciparum, 72 h, Table 4; 72 hours growth, LDH readout; read-out: EC50 (Table 4)

| Compound | EC50 [nM] |
| --- | --- |
| CCC1(CC)CC(=O)N([C@H](CCOC)[C@H]2C[C@@H]2C(=O)N[C@@H]2c3ccccc3OC(C)(C)[C@H]2O)C(=N)N1 [Example 145] | 8.4 |

Same assay, conditions: Table 3; 72 hours growth, LDH readout; read-out: EC50

| Compound | EC50 [nM] |
| --- | --- |
| COCC[C@H]([C@H]1C[C@@H]1C(=O)NC1CC(C)(C(C)C)Oc2ccccc21)N1C(=N)NC(C)(C)CC1=O (single isomer, unassigned) [Example 80A] | 9.4 |
| CCC1(C)CC(NC(=O)[C@H]2C[C@@H]2[C@@H](c2cccnc2)N2C(=N)NC(C)(C)CC2=O)c2ccccc2O1 (single isomer, unassigned) [Example 105A] | 0.9 |
| CCC1(CC)CC(=O)N(CC2C(C(=O)N[C@H]3C[C@@H](C(F)(F)F)Oc4ccccc43)C2(F)F)C(=N)N1 (single isomer, unassigned) [Example 17A] | 47 |
| CCC1(CC)CC(=O)N(C[C@H]2C(C)[C@@H]2C(=O)N[C@H]2CC(C)(C)Oc3ccccc32)C(=N)N1 (single isomer, unassigned) [Example 25B] | 25 |
| CC1(C)CC(=O)N([C@H](c2cccnc2)[C@H]2C[C@@H]2C(=O)NC2CC(C)(C)Oc3ccc(F)cc32)C(=N)N1 (single isomer, unassigned) [Example 98B] | 2.2 |
| COCC1(C)CC(NC(=O)[C@H]2C[C@@H]2[C@@H](c2cccnc2)N2C(=N)NC(C)(C)CC2=O)c2ccccc2O1 (single isomer, unassigned) [Example 108D] | 8.5 |
| CC1(C)CC(=O)N([C@H](c2cccnc2)[C@H]2C[C@@H]2C(=O)NC2CC(C)(C)Oc3c(Cl)cccc32)C(=N)N1 (stereo partly drawn) [Example 121B] | 2 |
| CCC1(CC)CC(=O)N(C[C@H]2C(C)[C@@H]2C(=O)N[C@H]2c3ccccc3CC2(C)O)C(=N)N1 (single isomer, unassigned) [Example 29B] | 351 |
| CC1(C)CC(=O)N([C@H](c2cccnc2)[C@H]2C[C@@H]2C(=O)NC2CC(C)(C)Oc3cc(F)ccc32)C(=N)N1 (stereo partly drawn) [Example 77B] | 2.3 |
| CC1[C@H](C(c2cccnc2)N2C(=N)NC(C)(C)CC2=O)[C@H]1C(=O)N[C@H]1C[C@H](C(F)(F)F)Oc2ccccc21 (single isomer, unassigned) [Example 54B] | 130 |

Same assay, conditions: Table 4; 72 hours growth, LDH readout; read-out: EC50 (Table 4)

| Compound | EC50 [nM] |
| --- | --- |
| CCC1(CC)CC(=O)N(C(CC(C)OC)[C@H]2C[C@@H]2C(=O)N[C@H]2CC(C)(C)Oc3ccccc32)C(=N)N1 (single isomer, unassigned) [Example 142B] | 0.7 |
| CCC1(CC)CC(=O)N([C@H](CCOC)[C@H]2C[C@@H]2C(=O)NC2CC(C)(C)Oc3cc(Cl)ccc32)C(=N)N1 (single isomer, unassigned) [Example 147A] | 2.8 |
| CCC1(CC)CC(=O)N([C@H](CCOC)[C@H]2C[C@@H]2C(=O)NC2CC(C)(C)Oc3cc(Cl)ccc32)C(=N)N1 (single isomer, unassigned) [Example 147B] | 8.2 |
